Assay results as given in ChEMBL document CHEMBL1140601, “Quantitative structure-activity relationship (QSAR) of tacrine derivatives against acetylcholinesterase (AChE) activity using variable selections” (Bioorg Med Chem Lett, 2007).

Biological target: Acetylcholinesterase (Homo sapiens) (UniProt P22303)
Sequence (P22303 whole entry): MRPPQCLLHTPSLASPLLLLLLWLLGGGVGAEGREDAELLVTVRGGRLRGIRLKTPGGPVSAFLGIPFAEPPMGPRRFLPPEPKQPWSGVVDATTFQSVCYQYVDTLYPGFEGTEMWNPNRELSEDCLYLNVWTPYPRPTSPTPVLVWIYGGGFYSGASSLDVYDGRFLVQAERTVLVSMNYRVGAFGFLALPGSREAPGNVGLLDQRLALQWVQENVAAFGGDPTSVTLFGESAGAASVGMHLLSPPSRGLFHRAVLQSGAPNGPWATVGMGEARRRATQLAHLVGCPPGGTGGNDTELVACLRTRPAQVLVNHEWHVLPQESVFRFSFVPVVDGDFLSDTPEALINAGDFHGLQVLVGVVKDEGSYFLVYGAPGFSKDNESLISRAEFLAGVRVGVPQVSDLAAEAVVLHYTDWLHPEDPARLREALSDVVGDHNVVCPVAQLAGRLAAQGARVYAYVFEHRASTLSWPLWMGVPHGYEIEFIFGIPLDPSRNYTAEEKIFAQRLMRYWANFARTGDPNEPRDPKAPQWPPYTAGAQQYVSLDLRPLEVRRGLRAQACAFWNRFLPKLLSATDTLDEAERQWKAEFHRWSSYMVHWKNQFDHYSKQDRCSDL
Description: Inhibition of AchE relative to tacrine

Question: With `CCOC(=O)C1=C(C)Oc2nc3c(c(N)c2C1c1ccccc1OC)CCCCC3` (stereo unspecified) as the compound, how does the logRA read?
Answer: Its logRA is -2.07.

Question: For `CCOC(=O)c1c(C)nc2nc3c(c(N)c2c1-c1ccccc1)CCCC3`, which logRA is on record?
Answer: The logRA was -0.801.

Question: `c1ccc2c(NCCCCCCCCNc3c4c(nc5ccccc35)CCCC4)c3c(nc2c1)CCCC3` was tested. Which logRA did it give?
Answer: The logRA was 2.32.

Question: For `CCOC(=O)c1c(C)nc2nc3c(c(N)c2c1-c1ccc(OC)cc1)CCCCC3`, which logRA is on record?
Answer: Its logRA is -1.02.

Question: Which logRA does the source give for `Cc1ccc2c(c1)-c1nc3ccccc3c(N)c1C2` here?
Answer: The logRA was -1.26.

Question: Which logRA does the source give for `CCOC(=O)c1c(C)nc2nc3c(c(N)c2c1-c1ccc(OC)c(OC)c1)CCCCC3` here?
Answer: Its logRA is -1.55.

Question: With `Cc1nc2nc3c(c(N)c2c(-c2ccccc2)c1C(=O)OC(C)C)CCCC3` as the compound, how does the logRA read?
Answer: Its logRA is -0.824.

Question: `Fc1ccc2c(NCCCCCCNc3c4c(nc5cc(F)ccc35)CCCC4)c3c(nc2c1)CCCC3` was tested. Which logRA did it give?
Answer: The logRA was 2.57.

Question: `CCOC(=O)c1c(C)nc2nc3c(c(N)c2c1-c1ccncc1)CCCCC3` was tested. Which logRA did it give?
Answer: The logRA was -1.56.

Question: How did the logRA turn out when `Nc1c2c(nc3ccccc13)CSCC2=O` was run?
Answer: The logRA was -0.745.

Question: Which logRA does the source give for `Nc1c2c(nc3ccccc13)-c1ccccc1C2` here?
Answer: Its logRA is -0.435.

Question: How did the logRA turn out when `CC1=CC2Cc3nc4ccccc4c(NCCCCCCCCNc4c5c(nc6ccccc46)CCCC5)c3C(C1)C2` (stereo unspecified) was run?
Answer: Its logRA is 2.4.

Question: With `CCOC(=O)c1c(C)nc2nc3c(c(N)c2c1-c1ccc(F)cc1)CCCCC3` as the compound, how does the logRA read?
Answer: Its logRA is -1.48.

Question: For `CC1=CC2Cc3nc4cc(Cl)ccc4c(NCCCCCCNc4c5c(nc6cc(Cl)ccc46)CCCC5)c3C(C1)C2` (stereo unspecified), which logRA is on record?
Answer: The logRA was 2.66.

Question: Which logRA does the source give for `CCOC(=O)c1c(C)nc2nc3c(c(N)c2c1-c1ccncc1)CCCC3` here?
Answer: The logRA was -1.

Question: `Fc1ccc2c(NCCCCCCCCNc3c4c(nc5cc(F)ccc35)CCCC4)c3c(nc2c1)CCCC3` was tested. Which logRA did it give?
Answer: The logRA was 2.68.

Question: `CCOC(=O)C1=C(C)Oc2nc3c(c(N)c2C1c1cccnc1)CCCC3` (stereo unspecified) was tested. Which logRA did it give?
Answer: Its logRA is -1.71.

Question: How did the logRA turn out when `CCOC(=O)c1c(C)nc2nc3c(c(N)c2c1-c1cccs1)CCC3` was run?
Answer: The logRA was -2.3.

Question: With `CCOC(=O)C1=C(C)Oc2nc3c(c(N)c2C1c1ccc(C)cc1)CCCC3` (stereo unspecified) as the compound, how does the logRA read?
Answer: Its logRA is -1.15.

Question: With `CCOC(=O)C1=C(C)Oc2nc3c(c(N)c2C1c1cccc(OC)c1)CCCCC3` (stereo unspecified) as the compound, how does the logRA read?
Answer: The logRA was -1.86.

Question: How did the logRA turn out when `CCOC(=O)c1c(C)nc2nc3c(c(N)c2c1-c1ccc(OC)cc1)CCCC3` was run?
Answer: Its logRA is -1.84.

Question: For `CCOC(=O)c1c(C)nc2nc3c(c(N)c2c1-c1ccc(F)cc1)CCCC3`, which logRA is on record?
Answer: The logRA was -0.596.

Question: How did the logRA turn out when `Nc1c2c(nc3cc(F)ccc13)-c1ccccc1C2` was run?
Answer: The logRA was -0.681.

Question: For `CNc1c2c(nc3ccccc13)-c1ccccc1C2`, which logRA is on record?
Answer: The logRA was -0.716.

Question: Which logRA does the source give for `c1ccc2c(NCCCCCCCNc3c4c(nc5ccccc35)CCCC4)c3c(nc2c1)CCCC3` here?
Answer: The logRA was 2.41.

Question: Which logRA does the source give for `CCOC(=O)C1=C(C)Oc2nc3c(c(N)c2C1c1ccccc1OC)CCCC3` (stereo unspecified) here?
Answer: Its logRA is -1.63.

Question: `O=C(CNc1c2c(nc3ccccc13)CCCC2)NCCC1CCN(c2ccccc2)CC1` was tested. Which logRA did it give?
Answer: The logRA was 1.57.

Question: Which logRA does the source give for `CC1=CC2Cc3nc4cc(Cl)ccc4c(NCCCN(C)CCCNc4c5c(nc6ccccc46)CCCC5)c3C(C1)C2` (stereo unspecified) here?
Answer: Its logRA is 2.81.

Question: `CCOC(=O)C1=C(C)Oc2nc3c(c(N)c2C1c1ccccc1)CCCC3` (stereo unspecified) was tested. Which logRA did it give?
Answer: Its logRA is -1.08.

Question: How did the logRA turn out when `CCOC(=O)C1=C(C)Oc2nc3c(c(N)c2C1c1ccncc1)CCCCC3` (stereo unspecified) was run?
Answer: The logRA was -1.79.

Question: How did the logRA turn out when `CCOC(=O)C1=C(C)Oc2nc3c(c(N)c2C1c1cccc([N+](=O)[O-])c1)CCCC3` (stereo unspecified) was run?
Answer: The logRA was -1.16.

Question: With `CC1=CC2Cc3nc4cc(Cl)ccc4c(NCCCCCCCNc4c5c(nc6ccccc46)CCCC5)c3C(C1)C2` (stereo unspecified) as the compound, how does the logRA read?
Answer: The logRA was 2.78.

Question: `CCOC(=O)c1c(C)nc2nc3c(c(N)c2c1-c1ccc(Cl)cc1)CCCC3` was tested. Which logRA did it give?
Answer: The logRA was -0.859.

Question: With `CCOC(=O)c1c(C)nc2nc3c(c(N)c2c1-c1ccccc1)CCCCC3` as the compound, how does the logRA read?
Answer: The logRA was -0.768.

Question: How did the logRA turn out when `Nc1c2c(nc3ccccc13)CSCC2O` (stereo unspecified) was run?
Answer: The logRA was -0.852.

Question: With `CCOC(=O)C1=C(C)Oc2nc3c(c(N)c2C1c1ccncc1)CCC3` (stereo unspecified) as the compound, how does the logRA read?
Answer: Its logRA is -1.67.

Question: How did the logRA turn out when `CCOC(=O)C1=C(C)Oc2nc3c(c(N)c2C1c1ccc(OC)c(OC)c1)CCCC3` (stereo unspecified) was run?
Answer: The logRA was -1.41.

Question: `Fc1ccc2c(NCCCCCCCNc3c4c(nc5ccccc35)CCC4)c3c(nc2c1)CCC3` was tested. Which logRA did it give?
Answer: Its logRA is 0.647.

Question: `Nc1c2c(nc3ccccc13)-c1ccc(Cl)cc1C2` was tested. Which logRA did it give?
Answer: Its logRA is -1.33.

Question: Which logRA does the source give for `CCOC(=O)c1c(C)nc2nc3c(c(N)c2c1-c1cccs1)CCCC3` here?
Answer: Its logRA is -2.25.

Question: Which logRA does the source give for `CCOC(=O)c1c(C)nc2nc3c(c(N)c2c1-c1cccs1)CCCCC3` here?
Answer: Its logRA is -2.01.

Question: With `CC1=CC2Cc3nc4cc(Cl)ccc4c(NCCCCCCNc4c5c(nc6ccccc46)CCCC5)c3C(C1)C2` (stereo unspecified) as the compound, how does the logRA read?
Answer: Its logRA is 2.61.

Question: For `Clc1ccc2c(NCCCCCCNc3c4c(nc5cc(Cl)ccc35)CCCC4)c3c(nc2c1)CCCC3`, which logRA is on record?
Answer: Its logRA is 2.74.

Question: `CCOC(=O)C1=C(C)Oc2nc3c(c(N)c2C1c1ccc(Cl)cc1)CCCC3` (stereo unspecified) was tested. Which logRA did it give?
Answer: The logRA was -1.17.

Question: With `CCOC(=O)C1=C(C)Oc2nc3c(c(N)c2C1c1ccc(C#N)cc1)CCCC3` (stereo unspecified) as the compound, how does the logRA read?
Answer: Its logRA is -1.43.

Question: For `CCOC(=O)c1c(C)nc2nc3c(c(N)c2c1-c1ccc(OC)c(OC)c1)CCCC3`, which logRA is on record?
Answer: The logRA was -0.859.

Question: `CCOC(=O)c1c(C)nc2nc3c(c(N)c2c1-c1cccc([N+](=O)[O-])c1)CCCC3` was tested. Which logRA did it give?
Answer: The logRA was -0.713.

Question: `COc1ccc2c(c1)Cc1c-2nc2ccccc2c1N` was tested. Which logRA did it give?
Answer: The logRA was -1.42.

Question: `CCOC(=O)C1=C(C)Oc2nc3c(c(N)c2C1c1ccc(OC)c(OC)c1)CCCCC3` (stereo unspecified) was tested. Which logRA did it give?
Answer: The logRA was -2.26.

Question: With `CCOC(=O)C1=C(C)Oc2nc3c(c(N)c2C1c1ccccc1)CCC3` (stereo unspecified) as the compound, how does the logRA read?
Answer: The logRA was -1.48.

Question: With `CCOC(=O)c1c(C)nc2nc3c(c(N)c2c1-c1cccc(OC)c1)CCCC3` as the compound, how does the logRA read?
Answer: The logRA was -0.824.

Question: With `c1ccc2c(NCCCCCCNc3c4c(nc5ccccc35)CCCCC4)c3c(nc2c1)CCCCC3` as the compound, how does the logRA read?
Answer: Its logRA is 2.19.

Question: With `CCOC(=O)C1=C(C)Oc2nc3c(c(N)c2C1c1ccc(OC)c(OC)c1)CCC3` (stereo unspecified) as the compound, how does the logRA read?
Answer: The logRA was -2.18.

Question: With `CCOC(=O)c1c(C)nc2nc3c(c(N)c2c1-c1cccn1C(C)=O)CCCC3` as the compound, how does the logRA read?
Answer: The logRA was -1.08.

Question: `c1ccc2c(NCCCCCCNc3c4c(nc5ccccc35)CCCC4)c3c(nc2c1)CCCC3` was tested. Which logRA did it give?
Answer: The logRA was 2.38.

Question: With `COc1ccc2c(c1)-c1nc3ccccc3c(N)c1C2` as the compound, how does the logRA read?
Answer: Its logRA is -1.24.

Question: With `CCOC(=O)C1=C(C)Oc2nc3c(c(N)c2C1c1ccc(OC)cc1)CCCC3` (stereo unspecified) as the compound, how does the logRA read?
Answer: The logRA was -0.825.

Question: For `CC1=CC2Cc3nc4cc(Cl)ccc4c(NCCCN(C)CCCNc4c5c(nc6cc(Cl)ccc46)CCCC5)c3C(C1)C2` (stereo unspecified), which logRA is on record?
Answer: Its logRA is 2.85.

Question: For `CCOC(=O)C1=C(C)Oc2nc3c(c(N)c2C1c1ccccc1OC)CCC3` (stereo unspecified), which logRA is on record?
Answer: The logRA was -2.12.

Question: With `CCOC(=O)C1=C(C)Oc2nc3c(c(N)c2C1c1ccncc1)CCCC3` (stereo unspecified) as the compound, how does the logRA read?
Answer: The logRA was -1.33.

Question: Which logRA does the source give for `Nc1ccc2nc3c(c(N)c2c1)Cc1ccccc1-3` here?
Answer: Its logRA is -1.37.

Question: `Nc1c2c(nc3ccccc13)C[S+]([O-])CC2O` (stereo unspecified) was tested. Which logRA did it give?
Answer: The logRA was -0.745.

Question: How did the logRA turn out when `CC1=CC2Cc3nc4cc(Cl)ccc4c(NCCCCCCCCNc4c5c(nc6ccccc46)CCCC5)c3C(C1)C2` (stereo unspecified) was run?
Answer: Its logRA is 2.79.

Question: With `CC1=CC2Cc3nc4cc(Cl)ccc4c(NCCCCCCCNc4c5c(nc6cc(Cl)ccc46)CCCC5)c3C(C1)C2` (stereo unspecified) as the compound, how does the logRA read?
Answer: The logRA was 2.79.

Question: For `COc1cccc2c1Cc1c-2nc2ccccc2c1N`, which logRA is on record?
Answer: Its logRA is -0.806.

Question: Which logRA does the source give for `CC1=CC2Cc3nc4cc(Cl)ccc4c(NCCCCCCCCNc4c5c(nc6cc(Cl)ccc46)CCCC5)c3C(C1)C2` (stereo unspecified) here?
Answer: The logRA was 2.71.

Question: With `CCOC(=O)c1c(C)nc2nc3c(c(N)c2c1-c1ccc(OC)cc1)CCC3` as the compound, how does the logRA read?
Answer: The logRA was -2.02.

Question: For `Nc1c2c(nc3cc(Cl)ccc13)-c1ccccc1C2`, which logRA is on record?
Answer: Its logRA is -1.42.

Question: For `CCOC(=O)c1c(C)nc2nc3c(c(N)c2c1-c1ccncc1)CCC3`, which logRA is on record?
Answer: Its logRA is -1.77.

Question: How did the logRA turn out when `CCOC(=O)c1c(C)nc2nc3c(c(N)c2c1-c1ccccc1)CCC3` was run?
Answer: Its logRA is -1.96.

Question: Which logRA does the source give for `Cc1cccc2c1Cc1c-2nc2ccccc2c1N` here?
Answer: The logRA was -1.19.
